Data reported in patent publication US9540366B2, “Ring-fused heterocyclic compound” (Kyowa Hakko Kirin Co., Ltd., priority 2012, dated 2017).
Like-named read-outs stand apart in the source and are kept apart here.

Assays:
[1] = tested on: morphine-induced pruritus mice; test: Inhibitory effect for pruritus in morphine-induced pruritus mice; assay type: in vivo; conditions: given 30 minutes or 1 hour before intrathecal morphine, scratching counted for 30 minutes, male ddY mice
Method: Inhibitory Effect for Pruritus in Morphine-Induced Pruritus Mice
Morphine (1 nmol/5 μL, dissolved in physiological saline) or physiological saline was intrathecally administered between the fifth and sixth lumbar vertebrae of male ddY mice using a microsyringe fitted with a 30-gauge injection needle. Mice to which only morphine was administered were referred to as a control group, and mice to which only physiological saline was administered were referred to as a physiological saline-administered group.
The number of scratching behavior with the hind legs which began to be observed immediately after the morphine administration was measured for 30 minutes. Because mice show continuous scratching actions in each scratching behavior, a series of such actions was counted as a single scratching behavior.
Each test compound was administered 30 minutes or 1 hour before the morphine administration. The test compound was suspended in a 0.5% methylcellulose solution and was prepared plural administration solutions of different concentrations, and each of them was orally administered in a volume of 10 mL/kg.

[2] = biological target: T1, human Cav3.2 T-type Ca2+ channel (Homo sapiens, UniProt O95180); test: Inhibitory effect for intracellular calcium response via Cav3.2 T-type Ca2+ channels (FLIPR Calcium 3 Assay Kit); assay type: cell-based
T1 construct: expressed in transfected cells; host or cells: KJMGER8 cells (Namalwa cell-derived cell line)
T1 sequence (O95180 whole entry): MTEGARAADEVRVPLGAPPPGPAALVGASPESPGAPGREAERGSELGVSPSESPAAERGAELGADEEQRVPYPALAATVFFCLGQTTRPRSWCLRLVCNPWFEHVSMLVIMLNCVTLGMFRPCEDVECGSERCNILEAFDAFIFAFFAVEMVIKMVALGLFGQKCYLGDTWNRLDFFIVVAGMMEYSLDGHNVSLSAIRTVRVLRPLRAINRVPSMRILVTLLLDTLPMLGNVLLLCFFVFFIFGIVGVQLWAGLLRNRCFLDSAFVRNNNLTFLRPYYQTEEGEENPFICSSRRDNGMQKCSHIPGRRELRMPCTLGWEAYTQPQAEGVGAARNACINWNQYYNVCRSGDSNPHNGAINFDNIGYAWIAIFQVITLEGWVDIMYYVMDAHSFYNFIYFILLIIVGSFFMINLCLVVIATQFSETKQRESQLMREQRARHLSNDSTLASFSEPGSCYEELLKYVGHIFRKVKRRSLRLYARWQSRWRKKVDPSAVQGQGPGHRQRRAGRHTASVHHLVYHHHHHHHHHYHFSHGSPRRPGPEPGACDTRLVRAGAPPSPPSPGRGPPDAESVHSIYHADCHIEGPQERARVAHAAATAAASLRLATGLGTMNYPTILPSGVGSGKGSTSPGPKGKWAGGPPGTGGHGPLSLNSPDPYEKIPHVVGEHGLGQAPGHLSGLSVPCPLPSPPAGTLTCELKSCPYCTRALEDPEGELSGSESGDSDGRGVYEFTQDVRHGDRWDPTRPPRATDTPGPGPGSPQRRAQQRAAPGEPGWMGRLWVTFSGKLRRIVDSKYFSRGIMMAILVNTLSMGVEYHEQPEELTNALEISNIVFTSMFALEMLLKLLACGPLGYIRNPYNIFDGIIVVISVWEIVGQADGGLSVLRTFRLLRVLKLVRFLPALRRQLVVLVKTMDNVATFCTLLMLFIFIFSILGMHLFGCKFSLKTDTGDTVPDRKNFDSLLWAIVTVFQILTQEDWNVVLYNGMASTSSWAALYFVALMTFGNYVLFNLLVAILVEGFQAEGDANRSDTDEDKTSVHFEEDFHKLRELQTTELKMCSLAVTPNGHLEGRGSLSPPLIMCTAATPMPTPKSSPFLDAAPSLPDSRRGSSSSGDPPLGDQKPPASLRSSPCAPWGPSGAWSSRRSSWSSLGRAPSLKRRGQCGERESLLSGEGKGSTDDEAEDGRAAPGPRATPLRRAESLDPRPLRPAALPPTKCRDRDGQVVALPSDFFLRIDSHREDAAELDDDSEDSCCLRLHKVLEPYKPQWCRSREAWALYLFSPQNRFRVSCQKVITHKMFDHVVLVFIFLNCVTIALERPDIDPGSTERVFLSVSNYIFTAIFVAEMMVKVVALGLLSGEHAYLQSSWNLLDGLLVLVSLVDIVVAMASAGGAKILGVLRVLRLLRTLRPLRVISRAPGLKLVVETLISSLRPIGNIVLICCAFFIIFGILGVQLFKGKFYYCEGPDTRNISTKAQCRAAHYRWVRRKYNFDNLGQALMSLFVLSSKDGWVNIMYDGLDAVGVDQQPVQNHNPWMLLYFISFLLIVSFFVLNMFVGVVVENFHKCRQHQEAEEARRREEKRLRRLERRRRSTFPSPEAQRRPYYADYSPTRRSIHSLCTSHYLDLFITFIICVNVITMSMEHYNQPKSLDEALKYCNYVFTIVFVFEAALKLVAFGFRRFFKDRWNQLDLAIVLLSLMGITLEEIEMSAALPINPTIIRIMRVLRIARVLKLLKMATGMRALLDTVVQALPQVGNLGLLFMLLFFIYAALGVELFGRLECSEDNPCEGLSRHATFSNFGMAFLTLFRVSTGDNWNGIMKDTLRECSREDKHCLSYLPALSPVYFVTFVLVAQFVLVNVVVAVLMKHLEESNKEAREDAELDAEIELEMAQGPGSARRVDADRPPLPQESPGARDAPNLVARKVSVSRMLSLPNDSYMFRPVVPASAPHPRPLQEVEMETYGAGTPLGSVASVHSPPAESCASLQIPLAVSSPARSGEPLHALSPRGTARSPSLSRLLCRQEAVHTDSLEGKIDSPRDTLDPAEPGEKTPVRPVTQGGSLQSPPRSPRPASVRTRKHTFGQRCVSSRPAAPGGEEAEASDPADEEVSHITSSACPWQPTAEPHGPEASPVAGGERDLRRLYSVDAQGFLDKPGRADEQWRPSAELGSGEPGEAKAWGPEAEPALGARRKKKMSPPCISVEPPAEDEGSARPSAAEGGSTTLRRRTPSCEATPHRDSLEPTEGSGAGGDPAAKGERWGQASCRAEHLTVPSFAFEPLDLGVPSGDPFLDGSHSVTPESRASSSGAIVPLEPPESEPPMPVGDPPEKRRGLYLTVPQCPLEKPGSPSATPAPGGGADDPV

[3] = human Cav3.2-expressing KJMGER8 cells (Namalwa-derived), calcium response induced by 5 mmol/L CaCl2, 3 μmol/L mibefradil as reference, read-out: IC50 for the human Cav3.2 T-type Ca2+ current

| SMILES | inhibition of the increase of the scratching behavior in morphine-induced pruritus mice ([1]; oral dose of 30 mg/kg or less) | IC50 [2] | IC50 [2, 3] | inhibition of the increase of the scratching behavior in morphine-induced pruritus mice ([1]; oral dose of 10 mg/kg or less) |
| --- | --- | --- | --- | --- |
| CC(F)(F)c1nc2cc(C(=O)NC3CCC(F)(F)CC3)c(Cl)cn2c1CC1CCC(F)(F)CC1 [Compound 15, 6-Chloro-N-(4,4-difluorocyclohexyl)-3-[(4,4-difluorocyclohexyl)methyl]-2-(1,1-difluoroethyl)imidazo[1,2-a]pyridine-7-carboxamide] | inhibited the increase of the scratching behavior | ≤ 0.1 µM | – | – |
| N#Cc1cc(C(=O)NC2CCOCC2)cc2nc(C(F)(F)F)c(CC3CCC(F)(F)CC3)n12 [Compound 40] | inhibited the increase of the scratching behavior | ≤ 0.1 µM | – | – |
| N#Cc1cc(C(=O)NCC2CC2)cc2nc(C(F)(F)F)c(CC3CCC(F)(F)CC3)n12 [Compound 53, 5-Cyano-N-(cyclopropylmethyl)-3-[(4,4-difluorocyclohexyl)methyl]-2-(trifluoromethyl)imidazo[1,2-a]pyridine-7-carboxamide] | inhibited the increase of the scratching behavior | – | ≤ 0.1 µM | – |
| COC(C)(C)CNC(=O)c1cc(C#N)n2c(CC3CCC(F)(F)CC3)c(C(F)(F)F)nc2c1 [Compound 55, 5-Cyano-3-[(4,4-difluorocyclohexyl)methyl]-N-(2-methoxy-2-methylpropyl)-2-(trifluoromethyl)imidazo[1,2-a]pyridine-7-carboxamide] | inhibited the increase of the scratching behavior | ≤ 0.1 µM | – | – |
| O=C(NC1CC2(COC2)C1)c1cc(Cl)n2c(CC3CCC(F)(F)CC3)c(C(F)(F)F)nc2c1 [Compound 129, 5-Chloro-3-[(4,4-difluorocyclohexyl)methyl]-N-(2-oxaspiro[3.3]heptan-6-yl)-2-(trifluoromethyl)imidazo[1,2-a]pyridine-7-carboxamide] | inhibited the increase of the scratching behavior | – | – | – |
| COC(C)(C)CNC(=O)c1cc(C#N)n2c(CC3CCC(F)(F)CC3)c(C(C)(F)F)nc2c1 [Compound 164, 5-Cyano-3-[(4,4-difluorocyclohexyl)methyl]-2-(1,1-difluoroethyl)-N-(2-methoxy-2-methylpropyl)imidazo[1,2-a]pyridine-7-carboxamide] | – | ≤ 0.1 µM | – | inhibited the increase of the scratching behavior |
| COC(C)(C)CNC(=O)c1cc2nc(C(F)(F)F)c(CC3CCC(F)(F)CC3)n2c(C#N)c1Cl [Compound 173, 6-Chloro-5-cyano-3-[(4,4-difluorocyclohexyl)methyl]-N-(2-methoxy-2-methylpropyl)-2-(trifluoromethyl)imidazo[1,2-a]pyridine-7-carboxamide] | – | ≤ 0.1 µM | – | inhibited the increase of the scratching behavior |
| N#CC1(CNC(=O)c2cc(Cl)n3c(CC4CCC(F)(F)CC4)c(C(F)(F)F)nc3c2)CC1 [Compound 176, 5-Chloro-N-[(1-cyanocyclopropyl)methyl]-3-[(4,4-difluorocyclohexyl)methyl]-2-(trifluoromethyl)imidazo[1,2-a]pyridine-7-carboxamide] | – | – | ≤ 0.1 µM | inhibited the increase of the scratching behavior |
| N#Cc1cc(C(=O)N[C@H]2C[C@@H]3CC[C@H]2O3)cc2nc(C(F)(F)F)c(CC3CCC(F)(F)CC3)n12 [Compound 178, N-[(1R,2S,4S)-7-Oxabicyclo[2.2.1]heptan-2-yl]-5-cyano-3-[(4,4-difluorocyclohexyl)methyl]-2-(trifluoromethyl)imidazo[1,2-a]pyridine-7-carboxamide] | – | – | ≤ 0.1 µM | inhibited the increase of the scratching behavior |
| CC(C)c1nc2cc(C(=O)N[C@H]3C[C@@H]4CC[C@H]3O4)cc(C#N)n2c1CC1CCC(F)(F)CC1 [Compound 180, N-[(1R,2S,4S)-7-Oxabicyclo[2.2.1]heptan-2-yl]-5-cyano-3-[(4,4-difluorocyclohexyl)methyl]-2-isopropylimidazo[1,2-a]pyridine-7-carboxamide] | – | ≤ 0.1 µM | – | inhibited the increase of the scratching behavior |
| Cc1c(C(=O)NC2CCOCC2)cc2nc(C(F)(F)F)c(CC3CCC(F)(F)CC3)n2c1C#N [Compound 181, 5-Cyano-3-[(4,4-difluorocyclohexyl)methyl]-6-methyl-N-(tetrahydro-2H-pyran-4-yl)-2-(trifluoromethyl)imidazo[1,2-a]pyridine-7-carboxamide] | – | – | ≤ 0.1 µM | inhibited the increase of the scratching behavior |
| CN(C)CC(C)(C)CNC(=O)c1cc(C#N)n2c(CC3CCC(F)(F)CC3)c(C(F)(F)F)nc2c1 [Compound 182, 5-Cyano-3-[(4,4-difluorocyclohexyl)methyl]-N-[3-(dimethylamino)-2,2-dimethylpropyl]-2-(trifluoromethyl)imidazo[1,2-a]pyridine-7-carboxamide] | – | – | ≤ 0.1 µM | inhibited the increase of the scratching behavior |
| CC(F)(F)c1nc2cc(C(=O)N[C@H]3C[C@@H]4CC[C@H]3O4)cc(C#N)n2c1CC1CCC(F)(F)CC1 [Compound 183, N-[(1R,2S,4S)-7-Oxabicyclo[2.2.1]heptan-2-yl]-5-cyano-3-[(4,4-difluorocyclohexyl)methyl]-2-(1,1-difluoroethyl)imidazo[1,2-a]pyridine-7-carboxamide] | – | ≤ 0.1 µM | – | inhibited the increase of the scratching behavior |
| COC(C)(C)CNC(=O)c1cc2nc(C(C)(F)F)c(CC3CCC(F)(F)CC3)n2c(C#N)c1C [Compound 184, 5-Cyano-3-[(4,4-difluorocyclohexyl)methyl]-2-(1,1-difluoroethyl)-N-(2-methoxy-2-methylpropyl)-6-methylimidazo[1,2-a]pyridine-7-carboxamide] | – | ≤ 0.1 µM | – | inhibited the increase of the scratching behavior |
| Cc1c(C(=O)NC2CCOCC2)cc2nc(C(C)(F)F)c(CC3CCC(F)(F)CC3)n2c1C#N [Compound 185, 5-Cyano-3-[(4,4-difluorocyclohexyl)methyl]-2-(1,1-difluoroethyl)-6-methyl-N-(tetrahydro-2H-pyran-4-yl)imidazo[1,2-a]pyridine-7-carboxamide] | – | ≤ 0.1 µM | – | inhibited the increase of the scratching behavior |
| [2H]C([2H])([2H])OC(C)(C)CNC(=O)c1cc(C#N)n2c(CC3CCC(F)(F)CC3)c(C(F)(F)F)nc2c1 [Compound 186, 5-Cyano-3-[(4,4-difluorocyclohexyl)methyl]-N-(2-methoxy-d3-2-methylpropyl)-2-(trifluoromethyl)imidazo[1,2-a]pyridine-7-carboxamide] | – | ≤ 0.1 µM | – | inhibited the increase of the scratching behavior |
| CC(C)(CNC(=O)c1cc(C#N)n2c(CC3CCC(F)(F)CC3)c(C(F)(F)F)nc2c1)S(C)(=O)=O [Compound 189, 5-Cyano-3-[(4,4-difluorocyclohexyl)methyl]-N-[2-methyl-2-(methylsulfonyl)propyl]-2-(trifluoromethyl)imidazo[1,2-a]pyridine-7-carboxamide] | – | – | ≤ 0.1 µM | inhibited the increase of the scratching behavior |
| [2H]C([2H])([2H])OC(C)(C)CNC(=O)c1cc2nc(C(C)(F)F)c(CC3CCC(F)(F)CC3)n2c(C#N)c1C [Compound 190, 5-Cyano-3-[(4,4-difluorocyclohexyl)methyl]-2-(1,1-difluoroethyl)-N-(2-methoxy-d3-2-methylpropyl)-6-methylimidazo[1,2-a]pyridine-7-carboxamide] | – | ≤ 0.1 µM | – | inhibited the increase of the scratching behavior |
| O=C(NC1CCOCC1)c1cc2nc(C(F)(F)F)c(CC3CCC(F)(F)CC3)n2c(Cl)c1Cl [Compound 193] | – | – | – | inhibited the increase of the scratching behavior |
| [2H]C([2H])([2H])OC(C)(C)CNC(=O)c1cc(C#N)n2c(CC3CCC(F)(F)CC3)c(C(C)(F)F)nc2c1 [Compound 194, 5-Cyano-3-[(4,4-difluorocyclohexyl)methyl]-2-(1,1-difluoroethyl)-N-(2-methoxy-d3-2-methylpropyl)imidazo[1,2-a]pyridine-7-carboxamide] | – | ≤ 0.1 µM | – | inhibited the increase of the scratching behavior |
| CC(C)(CNC(=O)c1cc(Cl)n2c(CC3CCC(F)(F)CC3)c(C(F)(F)F)nc2c1)S(C)(=O)=O [Compound 197, 5-Chloro-3-[(4,4-difluorocyclohexyl)methyl]-N-[2-methyl-2-(methylsulfonyl)propyl]-2-(trifluoromethyl)imidazo[1,2-a]pyridine-7-carboxamide] | – | ≤ 0.1 µM | – | inhibited the increase of the scratching behavior |
